According to patent US20120329736A1, “Treatment for gastrointestinal disorders using a selective, site-activated binding system” (priority 2011, published 2012):
Values after ≈ are worked out from the molar mass of the structure shown.

Assays:
[1] = Hydrogen peroxide retention by extracts after desiccation and rehydration (colorimetric strips); type: physicochemical; conditions: dissolved in 35% hydrogen peroxide, heated at 80° C., desiccated, rehydrated
Experimental: In order to compare the samples provided above, a test series was prepared in 30 ml tubes containing from 1 g-10 g of the above extracts of Chinese Gall, Green Tea, Pomegranate and Resveratrol. Each was dissolved in 20 ml of 35% hydrogen peroxide then separate to two aliquots. One part was heated at 80° C. to a dark viscous semi-liquid and allowed to desiccate to a final volume of 5 ml. Each was rehydrated and serially diluted to detection range.

[2] = cited from earlier work
[3] = system: broad spectrum of bacteria, gram positive and gram negative; conditions: cited from earlier work

Compound | peroxide retention capability [1] | water solubility [2] [µg/mL] | MIC performance compared to the binding system [3]
Oc1ccc(C=Cc2cc(O)cc(O)c2)cc1 [Resveratrol] | relatively less ability to form stable perhydrates | 3 (≈ 13.1 µM) | –
RIFAXAMIN | – | – | performed poorly compared to the binding system
